The source of these data is patent US11406631B2, “Hydrazone derivatives for preventing or treating EBV-related cancers” (Universite de Bretagne Occidentale, priority 2018, dated 2022).

Experiment [1] deals with GAr-based inhibition of translation. Nature of the experiment: Yeast assay (assays described in Lista et al.). In kind it is cell-based, Saccharomyces cerevisiae. The source says: A yeast-based (Saccharomyces cerevisiae) assay that recapitulates all the aspects of the GAr-based inhibition of translation, including the GAr-length dependency, has been developed, that allowed understanding the mechanisms of GAr-mediated mRNA translation—suppression in cis, as well as the cellular factors involved (Lista et al. Biotechnol J 2015, 10, 1670-1681). This assay was successfully used to identify small molecular weight compounds that can stimulate EBNA1 expression both in yeast and mammalian cells and that relieve GAr-based limitation of antigen presentation (Voisset et al. Dis Model Mech 2014, 7, 435-444).
Compounds 1a, 2a, 4a, 5a, 7a, 10a and 11a were also tested in the various assay described in Lista et al. (Nat Commun 2017, 8, 16043).

For a further experiment, the target named is G4-RNA EBNA1. Nature of the experiment: HT-G4-FID assay: Thiazole Orange displacement from G4-RNA. In kind it is binding, Epstein-Barr virus. How it is done:
This assay is based on the displacement of a fluorescent indicator (Thiazole Orange, hereinafter TO) from a G4-RNA structure (RNA G-quadruplex of EBNA1) by a putative ligand such as the compounds of the invention (see FIG. 1). This displacement is quantified as % TO displacement. The percentage of TO displacement is calculated from the fluorescence intensity (F) in the presence of a putative ligand, using:
[formula] where F0 is fluorescence intensity of the probe (TO) bound to RNA without added ligand. The percentage of displacement is then plotted as a function of the concentration of added ligand. The RNA affinity of putative ligands is evaluated using the concentration of a ligand required to decrease the fluorescence of the probe by 50% (noted DC50), which is determined graphically from non-linear fitting of the displacement curve. […] 2. Materials and Reagents
Thiazole Orange (TO) and cacodylic acid were purchased from Aldrich and used without further purification. The oligoribonucleotide EBNA1 [5′-r(GGGGCAGGAGCAGGAGGA)-3′] (SEQ ID no 1) purified by reversed-phase HPLC was purchased from Eurogentec.
Stock solutions of the ligands (2 mM in DMSO (dimethylsulfoxyde)) were used for G4-FID assay, unless otherwise stated, and were stored at −20° C. Stock solutions of TO (2 mM in DMSO) were used for G4-FID assay. Fluorescent probe powders and solutions were stored and used, protected from light and used as aliquots to avoid freeze-thaw cycles. HT-G4-FID measurements were performed on a FLUOstar Omega microplate reader (BMG Labtech) with 96-well Non-Binding Surface black with black bottom polystyrene microplates (Corning ref 3650).
For HT-G4-FID assay, the oligonucleotide was dissolved in K^+−100-buffer (10 mM lithium cacodylate, pH 7.3, 100 mM KCl, 1 mM EDTA, 1% DMSO). Oligonucleotide concentrations were determined on the basis of their absorbance at 260 nm. Prior to use, the oligonucleotide was pre-treated by heating at 95° C. for 5 min followed by a slow cooling to 25° C.
Each G4-FID assay is performed in a 96-well microplates. […] The microplate is filled with (a) K^+−100 solution (qs for 200 μL) (b) 10 μL of a solution of pre-folded oligonucleotides (5 μM) and TO (10 μM-2 eq) and (c) an extemporaneously prepared 5 μM ligand solution in K^+−100 buffer (0 to 100 μL along the line of the microplate, i.e., from column […]: 0, 0.125, 0.25, 0.375, 0.5, 0.625, 0.75, 1.0, 1.25, 1.5, 2.0 and 2.5 μM) (see Largy et al., Anal Bioanal Chem 2011, 400, 34193427). After 5 min of orbital shaking at 500 rpm, fluorescence intensity is measured using the following experimental parameters: positioning delay: 0.5 s, 20 flashes per well, emission/excitation filters (nm): 485/520, gain adjusted at 80% of the fluorescence from the most fluorescent well (i.e., a well from column A).
Results are shown in Table 1 below (lower DC50 values indicate higher affinity of compounds to the G4-RNA structure of EBNA1).

A further experiment concerns quadruplex RNA F-EBNA1-T. Nature of the experiment: FRET-melting assay. Type of experiment: binding, Epstein-Barr virus. The source says: The FRET-melting assay is based on thermal denaturation of G4-ARN monitored by fluorescence due to the phenomenon of Förster Resonance Energy Transfer (FRET). This method uses quadruplex-forming RNA sequence dual-labeled with two different fluorophores: a donor (fluorescein, or FAM) and an acceptor (tetramethylrhodamine, or TAMRA). When RNA is folded into G-quadruplex (G4) structure, fluorescence of the donor fluorophore is weak due to strong energy transfer (FRET) to the neighboring acceptor fluorophore. Upon thermal denaturation, the quadruplex unfolds and the fluorophores are separated, leading to decrease of the FRET effect and increase of the fluorescence of the donor (see FIG. 2). By following the fluorescence of the donor as a function of temperature, a melting curve of the G-quadruplex RNA can be obtained, which allows determining the temperature of denaturation at which 50% of the quadruples is unfolded (T1, FIG. 3).
The FRET-melting assay allows assessing the affinity of small molecules (ligands) for the G4-RNA. The addition of a G4-ligand stabilizes the G-quadruplex structure and increases the denaturation temperature. The temperature of denaturation in the presence of ligands (T2) can be compared with that obtained in the absence of ligands (T1). The value of ΔTm (ΔTm=T2−T1) represents a measure of the affinity of the compounds of the invention (ligand). Generally, values of ΔTm>20° C. correspond to ligands of high affinity.
The dual-labeled oligoribonucleotide EBNA1 [5′-FAM-r(GGGGCAGGAGCAGGAGGA)-TAMRA-3′] (SEQ ID no 2) purified by reversed-phase HPLC was purchased from Eurogentec. The donor fluorophore was 6-carboxyfluorescein (FAM) and the acceptor fluorophore was 6-carboxytetramethylrhodamine (TAMRA).
Stock solutions of the ligands (2 mM in DMSO) were used for FRET-melting assay, unless otherwise stated, and were stored at −20° C. FRET-melting measurements are performed on 7900HT Fast Real-Time PCR System (Applied Biosystems) with Microamp Fast optical 96-well reaction plate (Applied Biosystems).
Preparation of Oligonucleotides For FRET-melting assay, oligoribonucleotide F-EBNA1-T was dissolved in K^+10 buffer (10 mM lithium cacodylate buffer, pH 7.3, supplemented with 10 mM KCl and 90 mM LiCl).
Prior to use, all oligonucleotides were pre-treated by heating at 95° C. for 5 min, then rapidly cooled to 4° C. to favor the intramolecular folding by kinetic trapping. Duplex-DNA ds26 (5′CAA-TCG-GAT-CGA-ATT-CGA-TCC-GAT-TG-3′) (SEQ ID no 3) was prepared by heating this self-complementary strand at 90° C. for 5 min in K^+10 buffer followed by a slow cooling over 6 h.
FRET-melting assay is performed in 96-well plates on real time PCR apparatus 7900HT Fast Real-Time PCR System using the heating ramp as follow: 5 min at 25° C., then increase of 0.5° C. every minute until 95° C. Each experimental condition was tested in duplicated in a volume of 25 μL for each sample. The 96-well plates (Applied Biosystems) were prepared by aliquoting the annealed RNA (24 μL of 0.21 μM solution in K^+10 buffer) into each well, followed by 1 μL of ligand solution (25 μM in K^+10 buffer). For competition experiments, duplex competitors were added to 200 nM quadruplex sequences at final concentrations of 3.0 μM (15 eq) and 10.0 μM (50 eq), with a total reaction volume of 25 μL, with the labeled oligoribonucleotide (0.2 μM) and the ligand (1.0 μM). Measurements were made with excitation at 492 nm and detection at 516 nm. The change in the melting temperature in the presence of 1.0 μM putative ligand, ΔTm (1.0 μM), was calculated from at least two experiments by subtraction of the blank from the averaged melting temperature of each compound (1.0 μM).
The results are shown in FIG. 4 and in Table 2 below (higher ΔTm values indicate higher affinity of the compounds to G4-RNA structure of EBNA1).

Experiment [2] deals with interaction between NCL and the G4s of EBNA1 mRNA. The following applies: earlier study, Lista et al. Nat Commun 2017; cited from earlier work.

Molecules are shown by their SMILES.

On to `C[n+]1ccc(C=NNC(=O)c2cccc(C(=O)NN=Cc3cc[n+](C)cc3)n2)cc1.[I-].[I-]` [Compound 1a, N′^2,N′^6-Bis[(1-methylpyridinium-4-yl)methylene]pyridine-2,6-dicarbohydrazide iodide], for which the “result in the yeast assay” value in experiment [1] is “positive results”.
Take `C[n+]1ccc(C=NNC(=O)c2cc(C(=O)NN=Cc3cc[n+](C)cc3)ncn2)cc1.[I-].[I-]` [Compound 4a, N′^4,N′^6-Bis[(1-methylpyridinium-4-yl)methylene]pyrimidine-4,6-dicarbohydrazide iodide]: the “result in the yeast assay” value in experiment [1] is “positive results”.
With `C[n+]1ccc(C=NNC(=O)c2cc(C(=O)NN=Cc3cc[n+](C)c4ccccc34)ncn2)c2ccccc21.[I-].[I-]` [Compound 5a, N′^4,N′^6-Bis[(1-methylquinolinium-4-yl)methylene]pyrimidine-4,6-dicarbohydrazide iodide], the “result in the yeast assay” value in experiment [1] is “positive results”.
As to `C[n+]1ccc(C=NNC(=O)c2ccc3ccc(C(=O)NN=Cc4cc[n+](C)cc4)nc3n2)cc1.[I-].[I-]` [Compound 7a, N′^2,N′^7-Bis[(1-methylpyridinium-4-yl)methylene]-1,8-naphthyridine-2,7-dicarbohydrazide iodide], the “result in the yeast assay” value in experiment [1] is “positive results”.
Take `C[n+]1ccc(C=NNC(=O)c2ccc3ccc4ccc(C(=O)NN=Cc5cc[n+](C)cc5)nc4c3n2)cc1.[I-].[I-]` [Compound 10a, N′^2,N′^9-Bis[(1-methylpyridinium-4-yl)methylene]-1,10-phenanthroline-2,9-dicarbohydrazide iodide]: the DC50 on G4-RNA EBNA1 (K+-100 buffer, pH 7.3, triplicate assays) worked out at 320 ± 20 nM. Further, the “affinity for the G-quadruplex structure of EBNA1 (in words, FID data)” value with G4-RNA EBNA1 (conclusion from Table 1) is “particularly high affinity”. The “ΔTm, ligand + 3 μM ds26” value in the experiment on quadruplex RNA F-EBNA1-T (F-EBNA1-T 0.2 μM, ligand 1.0 μM, K+10 buffer, competitor DNA ds26 3 μM (15 eq)) amounted to 15.0 ± 0.6 °C. The “ΔTm, ligand + 10 μM ds26” value in the experiment with quadruplex RNA F-EBNA1-T (F-EBNA1-T 0.2 μM, ligand 1.0 μM, K+10 buffer, competitor DNA ds26 10 μM (50 eq)) was found to be 12.5 ± 1.5 °C. Moreover, in the experiment with quadruplex RNA F-EBNA1-T (F-EBNA1-T 0.2 μM, ligand 1.0 μM, K+10 buffer, no competitor), the “ΔTm, ligand alone” value was found to be 15.7 ± 0.6 °C. In addition, the “affinity for the G-quadruplex structure of EBNA1 (in words, FRET-melting data)” value with quadruplex RNA F-EBNA1-T (conclusion from Table 2) is “particularly high affinity”. For the same molecule, in experiment [1], the “result in the yeast assay” value is reported as “positive results”.
As to `C[n+]1cc(NC(=O)c2ccc3ccc4ccc(C(=O)Nc5cc6ccccc6[n+](C)c5)nc4c3n2)cc2ccccc21` [PhenDC3], the “NCL-EBNA1 mRNA G-quadruplex interaction by PLA” value in experiment [2] was “prevented”.
